Measurements from ChEMBL document CHEMBL1135600, “Novel tricyclic-alpha-alkyloxyphenylpropionic acids: dual PPARalpha/gamma agonists with hypolipidemic and antidiabetic activity” (J Med Chem, 2002).
Where “and” joins values, the source holds several entries; their conditions need not be identical. Identical values can stand only once.

Columns and labels:
[1] = molecular target: T1, Peroxisome proliferator-activated receptor gamma (Homo sapiens, UniProt P37231)
T1 sequence (P37231 whole entry): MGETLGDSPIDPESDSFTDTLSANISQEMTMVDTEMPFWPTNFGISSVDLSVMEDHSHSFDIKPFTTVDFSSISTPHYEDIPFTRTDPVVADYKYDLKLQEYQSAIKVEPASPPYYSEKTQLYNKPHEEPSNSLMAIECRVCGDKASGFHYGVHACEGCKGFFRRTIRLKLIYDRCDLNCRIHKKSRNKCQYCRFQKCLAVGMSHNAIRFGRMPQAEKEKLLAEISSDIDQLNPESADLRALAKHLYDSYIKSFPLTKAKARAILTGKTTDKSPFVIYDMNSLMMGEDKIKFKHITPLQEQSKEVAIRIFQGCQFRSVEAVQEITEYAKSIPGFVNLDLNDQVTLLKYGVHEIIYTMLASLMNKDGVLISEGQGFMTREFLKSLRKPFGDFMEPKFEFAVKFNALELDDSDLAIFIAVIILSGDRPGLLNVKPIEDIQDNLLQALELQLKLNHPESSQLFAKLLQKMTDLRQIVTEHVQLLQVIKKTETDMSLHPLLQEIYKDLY
Description: In vitro transactivation using receptor transactivation assay against hPPAR gamma

[2] = molecular target: T2, Peroxisome proliferator-activated receptor alpha (Homo sapiens, UniProt Q07869); experiment: In vitro transactivation using receptor transactivation assay against hPPAR alpha; type: functional
T2 sequence (Q07869 whole entry): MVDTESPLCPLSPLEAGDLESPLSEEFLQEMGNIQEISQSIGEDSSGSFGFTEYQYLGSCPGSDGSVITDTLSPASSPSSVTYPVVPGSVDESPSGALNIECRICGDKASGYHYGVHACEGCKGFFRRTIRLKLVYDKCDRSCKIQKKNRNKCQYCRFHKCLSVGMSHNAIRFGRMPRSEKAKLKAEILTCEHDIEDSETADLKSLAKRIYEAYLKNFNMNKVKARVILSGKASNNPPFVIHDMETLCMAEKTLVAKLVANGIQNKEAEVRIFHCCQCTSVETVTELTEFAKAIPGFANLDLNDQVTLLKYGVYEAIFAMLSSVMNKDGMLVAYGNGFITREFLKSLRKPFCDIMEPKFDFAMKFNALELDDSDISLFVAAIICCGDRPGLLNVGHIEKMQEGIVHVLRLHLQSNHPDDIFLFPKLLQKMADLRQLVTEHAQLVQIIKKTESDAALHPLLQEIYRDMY

Mus musculus [3] = experiment: In vivo blood glucose level in male db/db mice after administration of 3 mg/kg peroral dose of compound once in a day; type: functional; conditions: route oral
[4] = Oral bioavailability; type: ADME, organism-based; conditions: eutheria, in vivo
Mus musculus [5] = experiment: In vivo blood glucose area under curve after oral glucose tolerance test in male db/db mice at 3 mg/kg peroral dose of compound once in a day; type: ADME, organism-based; parameters: dose 3 mg/kg, route oral
[6] = Maximum achieved Total cholesterol reduction relative to vehicle treated control group; type: functional
Mus musculus [7] = organism: Mus musculus; experiment: Nonfasting triglycerides after 7 days treatment in male db/db mice; type: functional; conditions: 168 h
Mus musculus [8] = experiment: In vivo % reduction of blood glucose level in male db/db mice after administration of 1 mg/kg peroral dose of compound thrice a day; type: functional; conditions: route oral
Mus musculus [9] = organism: Mus musculus; experiment: Nonfasting blood glucose after 7 days treatment in male db/db mice; type: functional; conditions: 168 h
Mus musculus [10] = experiment: In vivo blood glucose area under curve after oral glucose tolerance test in male db/db mice at 1 mg/kg peroral dose of compound thrice a day; type: ADME, organism-based; parameters: dose 1 mg/kg, route oral
[11] = Maximum achieved Nonfasted triglycerides reduction relative to vehicle treated control group; type: functional
Mus musculus [12] = organism: Mus musculus; experiment: Nonfasting insulin after 7 days treatment in male db/db mice; type: functional; conditions: 168 h
[13] = Clearance after oral administration; type: ADME, organism-based; conditions: in vivo
Mus musculus [14] = experiment: In vivo % reduction of blood glucose level in male db/db mice after administration of 3 mg/kg peroral dose of compound once in a day; type: functional; conditions: route oral
Mus musculus [15] = organism: Mus musculus; experiment: Maximum achieved insulin reduction relative to vehicle treated control group; type: functional
[16] = Maximum plasma concentration after oral administration at a dose 2.2 mg/kg; type: ADME, organism-based; parameters: dose 2.2 mg/kg, route oral; conditions: rat
Mus musculus [17] = experiment: In vivo % reduction of blood glucose level in male db/db mice after administration of 1 mg/kg peroral dose of compound once in a day; type: functional; conditions: route oral
Mus musculus [18] = experiment: In vivo blood glucose area under curve after oral glucose tolerance test in male db/db mice at 0.33 mg/kg peroral dose of compound thrice a day; type: ADME, organism-based; parameters: dose 0.33 mg/kg, route oral
[19] = Area under blood glucose time curve after OGTT on the 9th day of treatment; type: ADME, tissue-based
Mus musculus [20] = experiment: In vivo blood glucose area under curve after oral glucose tolerance test in male db/db mice at 1 mg/kg peroral dose of compound once in a day; type: ADME, organism-based; parameters: dose 1 mg/kg, route oral
Mus musculus [21] = experiment: In vivo blood glucose level in male db/db mice after administration of 0.33 mg/kg peroral dose of compound thrice a day; type: functional; conditions: route oral
Mus musculus [22] = experiment: In vivo % reduction of blood glucose area under curve after oral glucose tolerance test in male db/db mice at 0.33 mg/kg peroral dose of compound thrice a day; type: ADME, organism-based; parameters: dose 0.33 mg/kg, route oral
Mus musculus [23] = organism: Mus musculus; experiment: Maximum achieved triglycerides reduction relative to vehicle treated control group; type: functional
Mus musculus [24] = experiment: In vivo % reduction of blood glucose area under curve after oral glucose tolerance test in male db/db mice at 1 mg/kg peroral dose of compound once in a day; type: ADME, organism-based; parameters: dose 1 mg/kg, route oral
Mus musculus [25] = experiment: In vivo % reduction of blood glucose level in male db/db mice after administration of 0.33 mg/kg peroral dose of compound thrice a day; type: functional; conditions: route oral
Mus musculus [26] = experiment: In vivo blood glucose level in male db/db mice after administration of 1 mg/kg peroral dose of compound once in a day; type: functional; conditions: route oral
Mus musculus [27] = experiment: In vivo % reduction of blood glucose area under curve after oral glucose tolerance test in male db/db mice at 3 mg/kg peroral dose of compound once in a day; type: ADME, organism-based; parameters: dose 3 mg/kg, route oral
Mus musculus [28] = experiment: In vivo % reduction of blood glucose area under curve after oral glucose tolerance test in male db/db mice at 1 mg/kg peroral dose of compound thrice a day; type: ADME, organism-based; parameters: dose 1 mg/kg, route oral
Mus musculus [29] = experiment: In vivo blood glucose level in male db/db mice after administration of 1 mg/kg peroral dose of compound thrice a day; type: functional; conditions: route oral
[30] = Area under plasma concentration time curve after oral administration at a dose 2.2 mg/kg; type: ADME, organism-based; parameters: dose 2.2 mg/kg, route oral; conditions: in vivo
Mus musculus [31] = organism: Mus musculus; experiment: Maximum achieved blood glucose reduction relative to vehicle treated control group; type: functional

SMILES: CCOC(Cc1ccc(OCCC2Sc3ccccc3Oc3ccccc32)cc1)C(=O)O (configuration not stated)
- EC50 [1]: 3.7 µM
- EC50 [2]: 9 µM

SMILES: CN(CCOc1ccc(CC2SC(=O)NC2=O)cc1)c1ccccn1 (configuration not stated) [ROSIGLITAZONE]
- BG (Mus musculus [3]): 11.72 mM
- bioavailability [4]: 83%
- AUC glu (Mus musculus [5]): 2141 mM·min
- Reduction [6]: 24%
- ED50 (Mus musculus [7]): 0.14 mg/kg
- BG reduction (Mus musculus [8]): 39%
- ED50 (Mus musculus [9]): 0.87 mg/kg
- AUC glu (Mus musculus [10]): 1423 mM·min
- Reduction [11]: 11%
- ED50 (Mus musculus [12]): 0.07 mg/kg
- CL/F [13]: 2.1 mL/min/kg
- BG reduction (Mus musculus [14]): 45%
- Max reduction (Mus musculus [15]): 43%
- Cmax [16]: 4420 ng/mL
- BG reduction (Mus musculus [17]): 25%
- AUC glu (Mus musculus [18]): 2398 mM·min
- AUC ED50 [19]: 0.77 mg/kg
- AUC glu (Mus musculus [20]): 2551 mM·min
- BG (Mus musculus [21]): 11.35 mM
- AUC glu reduction (Mus musculus [22]): 18%
- Max reduction (Mus musculus [23]): 58%
- AUC glu reduction (Mus musculus [24]): 14%
- BG reduction (Mus musculus [25]): 47%
- BG (Mus musculus [26]): 16.08 mM
- AUC glu reduction (Mus musculus [27]): 28%
- AUC glu reduction(mM x min) (Mus musculus [28]): 51%
- BG (Mus musculus [29]): 13.06 mM
- AUC [30]: 14600 ng·h/mL
- Max reduction (Mus musculus [31]): 35% and 16%

SMILES: CCOC(Cc1ccc(OCCN2c3ccccc3CCc3ccccc32)cc1)C(=O)O (configuration not stated)
- EC50 [1]: 0.75 µM

SMILES: CCOC(Cc1ccc(OCCN2c3ccccc3C=Cc3ccccc32)cc1)C(=O)O (configuration not stated)
- EC50 [1]: 0.76 µM
- EC50 [2]: 9.5 µM

SMILES: CCOC(Cc1ccc(OCC=C2c3ccccc3OCOc3ccccc32)cc1)C(=O)O (configuration not stated)
- EC50 [1]: 3.4 µM

SMILES: CCOC(Cc1ccc(OCCC2c3ccccc3Oc3ccccc32)cc1)C(=O)O (configuration not stated)
- EC50 [1]: 0.46 µM
- EC50 [2]: 9.6 µM
